From ChEMBL document CHEMBL4261580, “Novel antitumor compound optimized from natural saponin Albiziabioside A induced caspase-dependent apoptosis and ferroptosis as a p53 activator through the mitochondrial pathway” (Eur J Med Chem, 2018)
Calls of active or inactive are those of the source. The rule behind the calls is not given here.

Columns and labels:
L02 = experiment: Antiproliferative activity against human LO2 cells after 72 hrs by MTT assay; assay type: cell-based; details: L02, 72 h
[1] = Antiproliferative activity against human CCD-841 cells after 72 hrs by MTT assay; assay type: cell-based; details: CCD-841, 72 h
HaCaT = experiment: Antiproliferative activity against human HaCaT cells after 72 hrs by MTT assay; assay type: cell-based
BEAS-2B = experiment: Antiproliferative activity against human BEAS2B cells after 72 hrs by MTT assay; assay type: functional, cell-based
[2] = Antiproliferative activity against adriamycin-resistant human Bel7402/ADR cells after 72 hrs by MTT assay; assay type: functional; details: Bel-7402, 72 h
HCT-116 [3] = experiment: Induction of apoptosis in human HCT116 cells assessed as cell shrinkage at 0.31 to 5 uM after 24 hrs by DAPI staining-based fluorescence microscopic method; assay type: functional
HCT-116 [4] = experiment: Induction of apoptosis in human HCT116 cells assessed as formation of apoptotic bodies at 0.31 to 5 uM after 24 hrs by DAPI staining-based fluorescence microscopic method; assay type: functional, cell-based
HCT-116 [5] = experiment: Induction of apoptosis in human HCT116 cells assessed as necrotic cells at 0.31 uM after 72 hrs by Annexin V-FITC/propidium iodide staining-based flow cytometric analysis (reference value: 0.76%); assay type: functional
HCT-116 [6] = experiment: Induction of apoptosis in human HCT116 cells assessed as late apoptotic cells at 0.31 uM after 72 hrs by Annexin V-FITC/propidium iodide staining-based flow cytometric analysis (reference value: 1.08%); assay type: functional
HCT-116 [7] = experiment: Induction of apoptosis in human HCT116 cells assessed as viable cells at 0.31 uM after 72 hrs by Annexin V-FITC/propidium iodide staining-based flow cytometric analysis (reference value: 92.86%); assay type: functional; details: HCT-116, 72 h, read-out: Activity
HCT-116 [8] = experiment: Induction of apoptosis in human HCT116 cells assessed as necrotic cells at 1.25 uM after 72 hrs by Annexin V-FITC/propidium iodide staining-based flow cytometric analysis (reference value: 0.76%); assay type: functional
HCT-116 [9] = experiment: Induction of apoptosis in human HCT116 cells assessed as late apoptotic cells at 1.25 uM after 72 hrs by Annexin V-FITC/propidium iodide staining-based flow cytometric analysis (reference value: 1.08%); assay type: functional
HCT-116 [10] = experiment: Induction of apoptosis in human HCT116 cells assessed as early apoptotic cells at 1.25 uM after 72 hrs by Annexin V-FITC/propidium iodide staining-based flow cytometric analysis (reference value: 5.30%); assay type: functional
HCT-116 [11] = experiment: Induction of apoptosis in human HCT116 cells assessed as late apoptotic cells at 5 uM after 72 hrs by Annexin V-FITC/propidium iodide staining-based flow cytometric analysis (reference value: 1.08%); assay type: functional
HCT-116 [12] = experiment: Induction of apoptosis in human HCT116 cells assessed as early apoptotic cells at 5 uM after 72 hrs by Annexin V-FITC/propidium iodide staining-based flow cytometric analysis (reference value: 5.30%); assay type: functional
HCT-116 [13] = experiment: Disruption of mitochondrial membrane potential in human HCT116 cells assessed as collapse of mitochondrial membrane potential at 0.31 uM after 72 hrs by JC1 staining-based flow cytometry method (reference value: […]); assay type: functional
HCT-116 [14] = experiment: Disruption of mitochondrial membrane potential in human HCT116 cells assessed as intact mitochondrial membrane at 5 uM after 72 hrs by JC1 staining-based flow cytometry method (reference value: 0.33%); assay type: functional
HCT-116 [15] = experiment: Disruption of mitochondrial membrane potential in human HCT116 cells assessed as collapse of mitochondrial membrane potential at 5 uM after 72 hrs by JC1 staining-based flow cytometry method (reference value: […]); assay type: functional
HCT-116 [16] = experiment: Induction of intracellular ROS generation in human HCT116 cells at 1.25 uM after 72 hrs by DCF-DA-dye based fluorescence microscopy (reference value: 2.74%); assay type: functional
HCT-116 [17] = experiment: Induction of intracellular ROS generation in human HCT116 cells at 5 uM after 72 hrs by DCF-DA-dye based fluorescence microscopy (reference value: 2.74%); assay type: functional
HCT-116 [18] = experiment: Induction of intracellular ROS generation in human HCT116 cells after 72 hrs by DCF-DA-dye based fluorescence microscopy; assay type: functional, cell-based
[19] = target: Cellular tumor antigen p53 (Homo sapiens) (UniProt P04637); experiment: Activation of p53 in human HCT116 cells assessed as downregulation of Bcl2 expression up to 5 uM after 48 hrs by Western blot analysis; assay type: cell-based
Cellular tumor antigen p53 (Homo sapiens), sequence (P04637 whole entry, looked up): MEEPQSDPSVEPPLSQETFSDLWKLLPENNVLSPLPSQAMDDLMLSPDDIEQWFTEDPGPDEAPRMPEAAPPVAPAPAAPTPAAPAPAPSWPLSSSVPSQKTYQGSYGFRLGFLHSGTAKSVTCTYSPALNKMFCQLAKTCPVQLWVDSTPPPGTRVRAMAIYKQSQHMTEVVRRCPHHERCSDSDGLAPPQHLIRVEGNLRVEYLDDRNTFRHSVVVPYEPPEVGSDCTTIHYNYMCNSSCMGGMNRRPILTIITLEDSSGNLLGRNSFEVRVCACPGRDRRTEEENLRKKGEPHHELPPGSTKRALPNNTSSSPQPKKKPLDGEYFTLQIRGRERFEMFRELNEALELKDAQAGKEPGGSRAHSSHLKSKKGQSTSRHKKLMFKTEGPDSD

[20] = target: Cellular tumor antigen p53 (Homo sapiens) (UniProt P04637); experiment: Activation of p53 in human HCT116 cells assessed as increase in caspase-9 level up to 5 uM after 48 hrs by Western blot analysis; assay type: cell-based
HCT-116 [21] = experiment: Cytotoxicity against human HCT116 cells transfected with p53-siRNA up to 5 uM after 72 hrs by MTT assay; assay type: functional, cell-based
HCT-116 [22] = experiment: Cytotoxicity against human HCT116 cells pretreated with ferrostatin-1 followed by compound addition up to 5 uM measured after 72 hrs by MTT assay; assay type: functional, cell-based
HCT-116 [23] = experiment: Cytotoxicity in human HCT116 cells pretreated with DFO followed by compound addition up to 5 uM measured after 72 hrs by MTT assay; assay type: functional, cell-based
HCT-116 [24] = experiment: Cytotoxicity in human HCT116 cells pretreated with Fe3+ followed by compound addition up to 5 uM measured after 72 hrs by MTT assay; assay type: functional, cell-based
HCT-116 [25] = experiment: Cytotoxicity against human HCT116 cells pretreated with Na+ followed by compound addition up to 5 uM measured after 72 hrs by MTT assay; assay type: functional, cell-based
HCT-116 [26] = experiment: Cytotoxicity against human HCT116 cells pretreated with Al3+ followed by compound addition up to 5 uM measured after 72 hrs by MTT assay; assay type: functional, cell-based
HCT-116 [27] = experiment: Induction of ferroptosis in human HCT116 cells assessed as downregulation of GPX4 expression after 48 hrs by Western blot analysis; assay type: functional, cell-based
HCT-116 [28] = experiment: Induction of lipid peroxidation in human HCT116 cells assessed as increase in MDA levels up to 5 uM; assay type: functional
HCT-116 [29] = experiment: Antitumor activity against human HCT116 cells xenografted in BALB/c nude mouse assessed as decrease in tumor size at 20 mg/kg, iv administered once per day for 14 days and measured every 2 days; assay type: functional; parameters: scale not given: the % may be the effect or the level left
HCT-116 [30] = experiment: Antitumor activity against human HCT116 cells xenografted in BALB/c nude mouse assessed as decrease in tumor weight at 20 mg/kg, iv administered once per day for 14 days and measured every 2 days; assay type: functional; parameters: scale not given: the % may be the effect or the level left
Mus musculus [31] = experiment: Toxicity in BALB/c nude mouse xenografted with human HCT116 cells assessed as change in body weight at 10 to 20 mg/kg, iv administered once per day for 14 days and measured every 2 days; assay type: organism-based; details: in vivo
Mus musculus [32] = experiment: Toxicity in BALB/c nude mouse xenografted with human HCT116 cells assessed as abnormality in heart at 10 to 20 mg/kg, iv administered once per day by hematoxylin and eosin staining-based microscopic method; assay type: organism-based; details: in vivo
Mus musculus [33] = experiment: Toxicity in BALB/c nude mouse xenografted with human HCT116 cells assessed as abnormality in liver at 10 to 20 mg/kg, iv administered once per day by hematoxylin and eosin staining-based microscopic method; assay type: organism-based; details: in vivo
Mus musculus [34] = experiment: Toxicity in BALB/c nude mouse xenografted with human HCT116 cells assessed as abnormality in lung at 10 to 20 mg/kg, iv administered once per day by hematoxylin and eosin staining-based microscopic method; assay type: organism-based; details: in vivo

For CC(=O)N[C@H]1[C@H](O[C@H]2CC[C@]3(C)[C@H]4CC=C5[C@@H]6CC(C)(C)CC[C@]6(C(=O)OCc6cn(-c7cccc(C(C)=O)c7)nn6)CC[C@@]5(C)[C@]4(C)CC[C@H]3C2(C)C)O[C@H](CO[C@@H]2OC[C@H](O)[C@H](O)[C@@H]2O)[C@@H](O)[C@@H]1O, the IC50 (L02) was 33.2 µM, the IC50 [1] was 27.8 µM and the IC50 (HaCaT) was 37.1 µM. The IC50 (BEAS-2B) was 20.2 µM, the IC50 [2] was 5.83 µM and the Activity (HCT-116 [3]) was “Active”. For the same compound, the Activity (HCT-116 [4]) was “Active”, the Activity (HCT-116 [5]) was 2.62% and the Activity (HCT-116 [6]) was 12.51%. For the same compound, the viability at 0.31 µM (HCT-116 [7]) was 78.9%, the Activity (HCT-116 [8]) was 5.35% and the Activity (HCT-116 [9]) was 26.18%. It also gave an Activity (HCT-116 [10]) of 3.42%, an Activity (HCT-116 [11]) of 20.33% and an Activity (HCT-116 [12]) of 39.27%. The Activity (HCT-116 [13]) was 89.03%, the Activity (HCT-116 [14]) was 40.13% and the Activity (HCT-116 [15]) was 59.87%. The Activity (HCT-116 [16]) was 20.35%, the Activity (HCT-116 [17]) was 29.71% and the Activity (HCT-116 [18]) was “Dose-dependent effect”. The Activity [19] was “Active”, the Activity [20] was “Active” and the Activity (HCT-116 [21]) was “inactive”. For the same compound, the Activity (HCT-116 [22]) was “inactive”, the Activity (HCT-116 [23]) was “inactive” and the Activity (HCT-116 [24]) was “Active”. For the same compound, the Activity (HCT-116 [25]) was “Active”, the Activity (HCT-116 [26]) was “Active” and the Activity (HCT-116 [27]) was “Dose-dependent effect”. The “fold change (FC)” value (HCT-116 [28]) was greater than 2, the Activity (HCT-116 [29]) was 71.8% and the Activity (HCT-116 [30]) was 71.8%. The Activity (Mus musculus [31]) was “Non-Toxic”, the Activity (Mus musculus [32]) was “Non-Toxic” and the Activity (Mus musculus [33]) was “Non-Toxic”. For the same compound, the Activity (Mus musculus [34]) was “Non-Toxic”.
